Four compounds from ChEMBL document CHEMBL1201862, “PubChem BioAssay data set” (2004) can be followed below.

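These data come from cells grown in 96-well plates and exposed to compound for 48 hours at five concentrations. Here, GI50 denotes the concentration required for 50% inhibition of growth.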 Active and inactive are the calls of the source. Cut-off read from the data, not from the text of the source: active = GI50 up to about 1.1 µM and inactive = higher.

Common to all, as to test: NCI tumour cell line growth inhibition, 48 h
The subject of test [1] is K562.
Test [2] concerns SNB-19.
The subject of test [3] is MOLT-4.
In test [4] the test system is SR.
Test [5] deals with UACC-257.
For test [6], the system named is MDA-MB-231.
Test [7] deals with SNB-75.
Test [8] has as its system 786-0.
For test [9], the system named is NCI-H226.
The test system of test [10] is M14.
In test [11] the test system is NCI-H460.
Test [12] relates to HCT-116.
The test system of test [13] is CCRF-CEM.
The subject of test [14] is SK-MEL-5.
In test [15] the test system is IGROV-1.
Test [16] deals with RXF 393.
Test [17] has as its system OVCAR-5.
In test [18] the test system is SW-620.
Test [19] relates to LOX IMVI.

As to `Cn1nc2ccc(Nc3cc(=O)[nH]c4ccc5nn(C)nc5c34)cc2n1`, the GI50 in [1] is 50 µM (inactive); in test [2], > 100 µM (inactive); in test [3] it was 82.2 µM (inactive); in test [4], 53.2 µM (inactive); in test [5], > 100 µM (inactive); in test [6], > 100 µM (inactive). In addition, the GI50 in test [7], in [8], in [9], in [10], in [11] and in test [12] was > 100 µM (inactive) throughout. Moreover, the GI50 in [13] is > 100 µM (inactive); in [14] it was > 100 µM (inactive); in [15] it was 50.5 µM (inactive); in [16], > 100 µM (inactive); in test [17], > 100 µM (inactive); in test [18], > 100 µM (inactive).
Consider `CC(=O)c1c(O)ccc2c1c1c(n2C)C(=O)c2ccccc2C1=O`, for which the GI50 in test [1] was > 100 µM (inactive); in [2], 7.28 µM (inactive); in [3] it was 4.42 µM (inactive); in test [4], 2.25 µM (inactive); in [5], > 100 µM (inactive); in [6], 2.52 µM (inactive). The GI50 in [7] was 2.32 µM (inactive); in [8], 4.9 µM (inactive); in test [11], 3.21 µM (inactive); in test [19], 3.24 µM (inactive); in test [12], 3.01 µM (inactive); in test [13], 3.69 µM (inactive). Moreover, the GI50 is 3.29 µM (inactive) in [14], 1.82 µM (inactive) in test [15], 3.84 µM (inactive) in test [16] and > 100 µM (inactive) in [17].
In the case of `O=S(=O)(O)c1cc(/N=N/c2c(O)ccc3ccccc23)c2c(S(=O)(=O)O)cccc2c1`, the GI50 in [1], in test [2], in test [3], in test [4], in test [5] and in test [6] was > 100 µM (inactive) in each case. The GI50 was < 0.01 µM (active) in test [7]; > 100 µM (inactive) in [8]; > 100 µM (inactive) in test [9]; > 100 µM (inactive) in [10]; > 100 µM (inactive) in [11]; > 100 µM (inactive) in test [12]. The GI50 in [13], in test [14], in test [15], in test [16], in [17] and in test [18] was > 100 µM (inactive) throughout.
With `O=C(/C=C/c1ccc(Oc2cc(C(=O)/C=C/c3ccc(O)cc3)c(O)cc2O)cc1)c1ccc(O)cc1O` [RHUSCHALCONE II], the GI50 in test [1] was 3.47 µM (inactive); in test [2], 6.89 µM (inactive); in [3], 4.09 µM (inactive); in test [4], 3.35 µM (inactive); in test [5], 12.7 µM (inactive); in [6], 5.08 µM (inactive). The GI50 in [7] is 4.63 µM (inactive); in [8], 3.59 µM (inactive); in test [10], 10.3 µM (inactive); in test [11], 7.89 µM (inactive); in test [19], 5.47 µM (inactive); in [12], 2.25 µM (inactive). For the same compound, the GI50 in test [13] is 2.51 µM (inactive); in test [14], 4.4 µM (inactive); in test [15], 3.38 µM (inactive); in test [16] it was 4.97 µM (inactive); in [17] it was 5.27 µM (inactive); in test [18], 4.82 µM (inactive).
